Reference: article PMC9266351, “Degradation and Detoxification of Chlorophenols with Different Structure by LAC-4 Laccase Purified from White-Rot Fungus Ganoderma lucidum” (International Journal of Environmental Research and Public …, 2022)

What was measured:
Type in all cases: biochemical, Ganoderma lucidum
LAC-4 laccase [1] = system: T1, LAC-4 laccase; assay: degradation over […] min; Lineweaver-Burk plot; details: 50 mM acetate pH 5.0, 30 °C; 0.1-8 mM substrate, 1 U/mL enzyme
T1 construct: native secreted enzyme purified from culture filtrate (GYP medium, CuSO4-induced; ammonium sulfate, anion exchange, hydrophobic chromatography); about 56 kDa by SDS-PAGE

LAC-4 laccase [2] = system: T1, LAC-4 laccase; assay: degradation over […] min; Lineweaver-Burk plot; details: 50 mM acetate pH 5.0, 30 °C; 0.1-8 mM substrate, 1 U/mL enzyme; remark: listed apart in the source
LAC-4 laccase [3] = system: T1, LAC-4 laccase; assay: spectrophotometric oxidation at […] nm; non-linear Michaelis-Menten fit; details: 50 mM acetate pH 5.0, 30 °C; 0.01-0.06 mM substrate (all below Km), 0.01 U/mL enzyme
LAC-4 laccase [4] = system: T1, LAC-4 laccase; assay: as above; details: 50 mM acetate pH 5.0, 30 °C; 0.01-0.1 mM substrate, 0.01 U/mL enzyme
LAC-4 laccase [5] = system: T1, LAC-4 laccase; assay: as above; details: 50 mM acetate pH 5.0, 30 °C; 0.1-1.0 mM substrate, 0.01 U/mL enzyme

Oc1c(Cl)ccc(Cl)c1Cl [2,3,6-TCP]
Km (LAC-4 laccase [1]): 4.88 mM

Oc1c(Cl)cccc1Cl [2,6-DCP]
Km (LAC-4 laccase [2]): 3.64 mM

COc1cccc(OC)c1O [2,6-DMP]
Km (LAC-4 laccase [3]): 803 µM

CCn1c(=NN=c2sc3cc(S(=O)(=O)O)ccc3n2CC)sc2cc(S(=O)(=O)O)ccc21 [ABTS]
Km (LAC-4 laccase [4]): 75 µM

COc1ccccc1O [guaiacol]
Km (LAC-4 laccase [5]): 97 µM
